In PubChem BioAssay AID1259411 (Chemical Carcinogenesis Research Information System (CCRIS), 2018):
Calls of active or inactive are those of the source. How the calls were made is not given here.

System: rodent carcinogenicity bioassays, tumor incidence
Test: CCRIS carcinogenicity studies
Method in brief: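 NCI-built, expert-reviewed records of carcinogenicity and related test outcomes (mutagenicity, tumor promotion/inhibition) compiled from published and report sources, historical span 1985-2011, not updated.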

For `CCNC(=O)N(CCO)N=O`, the carcinogen call (Species: RAT, Strain/Sex: F344/FEMALE, Route: INTRAVESICULAR, Dose: 0, 3.6 MG 2/WK FOR 30 WK (STUDY DURATION: LIFETIME), Tumor Site: Type of Lesion: BLADDER: TUMOR, UTERUS: TUMOR) was “active; positive”, the carcinogen call (Species: RAT, Strain/Sex: F344/FEMALE, Route: ORAL, Dose: 0, 37, 74 MG/L IN DRINKING WATER 5 D/WK FOR 30 WK (STUDY DURATION: LIFETIME), Dose: 0, 37, 74 MG/L IN DRINKING WATER 5 D/WK FOR 30 WK (STUDY DURATION: LIFETIME), Tumor Site: Type of Lesion: MAMMARY GLAND: CARCINOMA) was “active; positive” and the carcinogen call (Species: RAT, Strain/Sex: F344/MALE, Route: GAVAGE, Dose: 0, 3.6 MG IN 0.2 ML ETHYL ACETATE/CORN OIL (1:1) 2/WK FOR 31 WK (TOTAL DOSE: 223 MG) (STUDY DURATION: 80 WK), Tumor Site: Type of Lesion: LIVER: CARCINOMA, LUNG: CARCINOMA OR ADENOMA, BRAIN: TUMORS, THYROID: CARCINOMA OR ADENOMA, PERITONEUM: MESOTHELIOMA, Tumor Site: Type of Lesion: LIVER: CARCINOMA, LUNG: CARCINOMA OR ADENOMA, BRAIN: TUMORS, THYROID: CARCINOMA OR ADENOMA, PERITONEUM: MESOTHELIOMA) was “active; positive”. The carcinogen call (Species: RAT, Strain/Sex: F344/MALE, Route: ORAL, Dose: 0, 37, 74 MG/L IN DRINKING WATER 5 D/WK FOR 30 WK (STUDY DURATION: LIFETIME), Dose: 0, 37, 74 MG/L IN DRINKING WATER 5 D/WK FOR 30 WK (STUDY DURATION: LIFETIME), Tumor Site: Type of Lesion: LIVER: TUMOR, LUNG: TUMOR, THYROID: FOLLICULAR TUMOR, MESOTHELIUM: TUMOR, NERVOUS SYSTEM: TUMOR, SKIN: TUMOR, Tumor Site: Type of Lesion: LIVER: TUMOR, LUNG: TUMOR, THYROID: FOLLICULAR TUMOR, MESOTHELIUM: TUMOR, NERVOUS SYSTEM: TUMOR, SKIN: TUMOR) was “active; positive”.
With `Cn1c(=O)c2c(ncn2C)n(C)c1=O` (tested in a mixture with another compound) the carcinogen call (Species: MOUSE, Strain/Sex: B6C3F1/FEMALE, Route: ORAL, Dose: 0, 0.7, 1.4% OF DIET FOR 78 WK (STUDY DURATION: 94 WK), Dose: 0, 0.7, 1.4% OF DIET FOR 78 WK (STUDY DURATION: 94 WK)) was “inactive; negative”, the carcinogen call (Species: MOUSE, Strain/Sex: B6C3F1/MALE, Route: ORAL, Dose: 0, 0.7, 1.4% OF DIET FOR 78 WK (STUDY DURATION: 94 WK), Dose: 0, 0.7, 1.4% OF DIET FOR 78 WK (STUDY DURATION: 94 WK)) was “inactive; negative” and the carcinogen call (Species: RAT, Strain/Sex: F344/FEMALE, Route: ORAL, Dose: 0, 0.7, 1.4% OF DIET FOR 78 WK (STUDY DURATION: 113 WK), Dose: 0, 0.7, 1.4% OF DIET FOR 78 WK (STUDY DURATION: 113 WK), Tumor Site: Type of Lesion: BLADDER: TRANSITIONAL CELL CARCINOMA, KIDNEY: TUBULAR CELL ADENOCARCINOMA, TRANSITIONAL CELL PAPILLOMA) was “equivocal”. The carcinogen call (Species: RAT, Strain/Sex: F344/MALE, Route: ORAL, Dose: 0, 0.7, 1.4% OF DIET FOR 78 WK (STUDY DURATION: 113 WK), Dose: 0, 0.7, 1.4% OF DIET FOR 78 WK (STUDY DURATION: 113 WK)) was “inactive; negative”.
With `COc1ccc(O)c(C(C)(C)C)c1` the carcinogen call (Species: HAMSTER, Strain/Sex: SYRIAN/MALE, Route: ORAL, Dose: 1% IN DIET FOR 24 WK (STUDY DURATION: 24 WK), Tumor Site: Type of Lesion: FORESTOMACH: PAPILLOMA) was “active; positive”.
With `Nc1cc(Cl)c(N)c(Cl)c1` the carcinogen call (Species: MOUSE, Strain/Sex: B6C3F1/FEMALE, Route: ORAL, Dose: 0, 1000, 3000 PPM IN DIET, Dose: 0, 1000, 3000 PPM IN DIET, Tumor Site: Type of Lesion: LIVER: HEPATOCELLULAR ADENOMA OR CARCINOMA) was “active; positive”, the carcinogen call (Species: MOUSE, Strain/Sex: B6C3F1/MALE, Route: ORAL, Dose: 0, 1000, 3000 PPM IN DIET, Dose: 0, 1000, 3000 PPM IN DIET, Tumor Site: Type of Lesion: LIVER: HEPATOCELLULAR ADENOMA OR CARCINOMA) was “active; positive” and the carcinogen call (Species: RAT, Strain/Sex: F344/FEMALE, Route: ORAL, Dose: 0, 2000, 6000 PPM IN DIET, Dose: 0, 2000, 6000 PPM IN DIET) was “inactive; negative”. For the same molecule, the carcinogen call (Species: RAT, Strain/Sex: F344/MALE, Route: ORAL, Dose: 0, 1000, 2000 PPM IN DIET, Dose: 0, 1000, 2000 PPM IN DIET) was “inactive; negative”.
In the case of `O=NN1CCC1`, the carcinogen call (Species: HAMSTER, Strain/Sex: SYRIAN/MALE, Route: INTRAGASTRIC, Dose: 0, 50 MG/ML IN 0.2 ML STERILIZED WATER 1/WK FOR 50 WK (TOTAL DOSE 500 MG) (STUDY DURATION: LIFESPAN), Tumor Site: Type of Lesion: LIVER: ADENOMA, HEPATOCELLULAR CARCINOMA, HEMANGIOSARCOMA, NOSE: CARCINOMA) is reported as “active; positive”.
For `CCN(CC)C(=O)/C(Cl)=C(\C)OP(=O)(OC)OC`, the carcinogen call (Species: MOUSE, Strain/Sex: B6C3F1/FEMALE, Route: ORAL, Dose: 0, 80, 160 PPM IN DIET, Dose: 0, 80, 160 PPM IN DIET) was “inactive; negative”, the carcinogen call (Species: MOUSE, Strain/Sex: B6C3F1/MALE, Route: ORAL, Dose: 0, 80, 160 PPM IN DIET, Dose: 0, 80, 160 PPM IN DIET) was “inactive; negative” and the carcinogen call (Species: RAT, Strain/Sex: OSBORNE-MENDEL/FEMALE, Route: ORAL, Dose: 0, 80, 160 PPM IN DIET FOR 80 WK (STUDY DURATION: 111 WK), Dose: 0, 80, 160 PPM IN DIET FOR 80 WK (STUDY DURATION: 111 WK), Tumor Site: Type of Lesion: THYROID GLAND: C-CELL ADENOMA OR CARCINOMA) was “equivocal”. For the same molecule, the carcinogen call (Species: RAT, Strain/Sex: OSBORNE-MENDEL/MALE, Route: ORAL, Dose: 0, 80, 160 PPM IN DIET FOR 80 WK (STUDY DURATION: 111 WK), Dose: 0, 80, 160 PPM IN DIET FOR 80 WK (STUDY DURATION: 111 WK), Tumor Site: Type of Lesion: SPLEEN: HEMANGIOMA OR HEMANGIOSARCOMA) was “equivocal”.
`Nc1cc2c3c(ccc2c2ccccc12)[C@H](O)[C@@H](O)C=C3` was tested, and the carcinogen call (Species: MOUSE, Strain/Sex: SWISS/FEMALE, Route: INTRAPERITONEAL, Dose: 0, 100 NMOL (TOTAL DOSE) 1/7, 2/7 AND 4/7 ADMINISTERED ON DAYS 1, 8 AND 15 OF LIFE RESPECTIVELY (STUDY DURATION: 32 WK), Tumor Site: Type of Lesion: LUNG: TUMOR) was “active; positive” and the carcinogen call (Species: MOUSE, Strain/Sex: SWISS/MALE, Route: INTRAPERITONEAL, Dose: 0, 100 NMOL (TOTAL DOSE) 1/7, 2/7 AND 4/7 ADMINISTERED ON DAYS 1, 8 AND 15 OF LIFE RESPECTIVELY (STUDY DURATION: 32 WK), Tumor Site: Type of Lesion: LUNG: TUMOR, LIVER: TUMOR) was “active; positive”.
With `CCCCN(CC)c1c([N+](=O)[O-])cc(C(F)(F)F)cc1[N+](=O)[O-]` the carcinogen call (Species: Mouse, Strain/Sex: B6C3F1/Female, Route: Oral, Dose: 0, 0.005, 0.03, 0.15% in diet for 2 yrs in 2 replicates of 30 mice/sex/group, Dose: 0, 0.005, 0.03, 0.15% in diet for 2 yrs in 2 replicates of 30 mice/sex/group) was “inactive; negative; slight but not statistically elevated incidence of total neoplastic tu”, the carcinogen call (Species: Mouse, Strain/Sex: B6C3F1/Male, Route: Oral, Dose: 0, 0.005, 0.03, 0.15% in diet for 2 yrs in 2 replicates of 30 mice/sex/group, Dose: 0, 0.005, 0.03, 0.15% in diet for 2 yrs in 2 replicates of 30 mice/sex/group) was “inactive; negative; slight but not statistically elevated incidence of total neoplastic t” and the carcinogen call (Species: Rat, Strain/Sex: CDF (F344)CrlBR/Female (50/sex/group), Route: Oral, Dose: 0, 10, 100, 2500, 5000 ppm (about 0; 0.7; 6.8; 168; 331 mg/kg/day ) in diet for 104 wks, Dose: 0, 10, 100, 2500, 5000 ppm (about 0; 0.7; 6.8; 168; 331 mg/kg/day ) in diet for 104 wks, Tumor Site: Type of Lesion: Thyroid: thyroid follicular adenomas and carcinomas (0/50; 0/50; 1/50; 5/50; 4/50)) was “active; positive; ca dpr judged the study as showing possible adverse effects”. The carcinogen call (Species: Rat, Strain/Sex: CDF (F344)CrlBR/Male (50/sex/group), Route: Oral, Dose: 0, 10, 100, 2500, 5000 ppm (about 0; 0.5; 5.4; 136; 275 mg/kg/day ) in diet for 104 wks, Dose: 0, 10, 100, 2500, 5000 ppm (about 0; 0.5; 5.4; 136; 275 mg/kg/day ) in diet for 104 wks, Tumor Site: Type of Lesion: Thyroid: thyroid follicular adenomas and carcinomas (1/50; 1/50; 7/50; 8/50) Liver: Hepatocellular tumors (primari) was “active; positive; ca dpr judged the study as showing possible adverse effects”.
